Measurements taken from patent US11530244B2, “Cyclic polypeptides for PCSK9 inhibition” (priority 2018, dated 2022).
pIC50: −log10 of the molar value. Starred links: 1 amine or outer side, 2 acyl side, 3 side chain; linkers in the order of their positions; H or OH if unused. Positions of bridges follow the written chain, without caps; N, C: chain ends. Non-standard residues stand in square brackets, D forms with d. Residues, ends and D or L forms follow the SMILES beside them. ξ: configuration not given here. *: point of attachment. Ala(benzothiazol-2-yl) = N[C@@H](Cc1nc2ccccc2s1)C(=O)O; Pro(trans-4-Ph) = O=C(O)[C@@H]1C[C@@H](c2ccccc2)CN1; X25 = O=C([C@H](Cc1cccc(OCC=[*:3])c1)N[*:1])[*:2]; Trp(5-F) = N[C@@H](Cc1c[nH]c2ccc(F)cc12)C(=O)O; Trp(7-aza) = N[C@@H](Cc1c[nH]c2ncccc12)C(=O)O; NMePhe(4-F) = CN[C@@H](Cc1ccc(F)cc1)C(=O)O; X3 = O=C(CCSCc1cc(F)cc(CSCCN[*:1])c1)[*:2]; X42 = CN([C@@H](CCC=[*:3])C(=O)[*:2])[*:1]; X4 = O=C(CCSCc1cccc(CSCCN[*:1])c1)[*:2]; Phe(4-Me) = Cc1ccc(C[C@H](N)C(=O)O)cc1; 1Nal = N[C@@H](Cc1cccc2ccccc12)C(=O)O; mXylylene = c1cc(C[*:1])cc(C[*:2])c1; hPhe = N[C@@H](CCc1ccccc1)C(=O)O; ξAEF = NCCOc1ccc(CC(N)C(=O)O)cc1; αMeK = C[C@](N)(CCCCN)C(=O)O; αMeP = C[C@@]1(C(=O)O)CCCN1; Orn = NCCC[C@H](N)C(=O)O; Aze = O=C(O)[C@@H]1CCN1; Nva = CCC[C@H](N)C(=O)O; OBn = c1ccc(CO*)cc1; Mpa = O=C(O)CCS

Target: human PCSK9 / human LDLR EGFa domain interaction (Homo sapiens (Human), UniProt Q8NBP7)
Assay: TR-FRET assay of inhibition of the PCSK9-LDLR protein-protein interaction
Assay type: binding
Conditions: TR-FRET, 20 nM human PCSK9, 20 nM human LDLR EGFa domain, 2 hours room temperature; read-out: IC50
Procedure: A time-resolved fluorescence resonance energy (TR-FRET) assay was used to measure inhibition of the PCSK9-LDLR protein-protein interaction. Briefly, 20 nM avitag-biotinylated human PCSK9 was incubated with 20 nM his-tagged human LDLR EGFa domain in the presence of 5 nM LANCE Ulight Streptavidin (Perkin Elmer) and 5 nM europium-Anti-6×His (Perkin Elmer) for 2 hours covered at room temperature in buffer containing 50 mM HEPES, 150 mM NaCl, 5 mM CaCl2), 0.01% BSA and 0.01% Surfactant P20. Compounds were tested in dose-response and concentrations giving half-maximal inhibition calculated using a 4-parameter fit equation.

Chain of human PCSK9 / human LDLR EGFa domain interaction (Q8NBP7 153-692): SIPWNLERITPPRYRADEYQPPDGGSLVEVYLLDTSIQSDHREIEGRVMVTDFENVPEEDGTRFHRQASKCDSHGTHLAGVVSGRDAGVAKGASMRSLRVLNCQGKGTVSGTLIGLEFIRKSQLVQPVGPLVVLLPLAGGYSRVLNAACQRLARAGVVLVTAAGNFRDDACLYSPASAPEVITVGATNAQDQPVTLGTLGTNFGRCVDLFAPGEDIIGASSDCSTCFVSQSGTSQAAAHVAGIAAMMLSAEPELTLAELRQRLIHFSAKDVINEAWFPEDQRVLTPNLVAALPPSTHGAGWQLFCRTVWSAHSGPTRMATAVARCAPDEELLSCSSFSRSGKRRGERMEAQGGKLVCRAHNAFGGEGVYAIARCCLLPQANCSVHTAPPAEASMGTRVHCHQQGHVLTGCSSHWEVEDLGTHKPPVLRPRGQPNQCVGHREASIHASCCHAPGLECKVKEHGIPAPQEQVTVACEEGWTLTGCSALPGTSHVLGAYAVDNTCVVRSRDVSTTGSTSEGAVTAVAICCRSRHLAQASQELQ
Chain of human PCSK9 / human LDLR EGFa domain interaction (Q8NBP7 31-152 partner): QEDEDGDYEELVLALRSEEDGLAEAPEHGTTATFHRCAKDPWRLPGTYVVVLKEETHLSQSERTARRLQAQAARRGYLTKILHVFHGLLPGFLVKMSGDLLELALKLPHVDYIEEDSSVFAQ

SMILES	pIC50
COc1ccc(C[C@@H]2NC(=O)[C@H]([C@@H](C)OC)NC(=O)[C@@H]3CC/C=C/COc4cccc(c4)C[C@H](NC(=O)[C@@H](C)NC(=O)[C@H](C)NC(=O)CCSCc4cc(F)cc(c4)CSCCNC(=O)[C@]4(C)CCCN4C2=O)C(=O)N[C@@H](Cc2c[nH]c4ccc(F)cc24)C(=O)N3C)cc1 [Compound 504] (cyclo(A[dA][X25][Trp(5-F)][X42]T(Me)Y(Me)[αMeP][X3]); staple (E) 3-5)	6.00 to 7.00
NCCCC[C@@H]1NC(=O)CCSCc2cccc(c2)CSC[C@@H](C(N)=O)NC(=O)[C@@H]2CCCN2C(=O)[C@H](Cc2nc3ccccc3s2)NC(=O)[C@H](Cc2c[nH]cn2)NC(=O)[C@H](CC(=O)O)NC(=O)[C@H](Cc2c[nH]c3ccc(F)cc23)NC(=O)[C@H](Cc2c[nH]c3ccc(F)cc23)NC(=O)CNC1=O [Compound 266] ([Mpa]KG[Trp(5-F)][Trp(5-F)]DH[Ala(benzothiazol-2-yl)]PC-NH2; linker 1-10 via mXylylene)	4.30 to 4.68
CCC[C@H](NC(C)=O)C(=O)N[C@H](Cc1c[nH]cn1)C(=O)N(C)[C@@H](Cc1ccc(F)cc1)C(=O)N[C@H]1CSCc2cccc(c2)CSC[C@@H](C(N)=O)NC(=O)[C@@H]2CCCN2C(=O)[C@H](Cc2ccc(O)cc2)NC(=O)[C@H](Cc2c[nH]cn2)NC(=O)[C@H](CC(=O)O)NC(=O)[C@H](Cc2c[nH]c3ccc(F)cc23)NC(=O)[C@H](Cc2c[nH]c3ccc(F)cc23)NC(=O)CNC(=O)[C@H](CCCCN)NC1=O [Compound 144] (Ac-[Nva][dH][NMePhe(4-F)]CKG[Trp(5-F)][Trp(5-F)]DHYPC-NH2; linker 4-13 via mXylylene)	4.92 to 6.00
NCCCC[C@@H]1NC(=O)CCCCCn2cc(nn2)CCC[C@@H](C(N)=O)NC(=O)[C@@H]2CCCN2C(=O)[C@H](Cc2ccc(O)cc2)NC(=O)[C@H](Cc2c[nH]cn2)NC(=O)[C@H](CC(=O)O)NC(=O)[C@H](Cc2c[nH]c3ccc(F)cc23)NC(=O)[C@H](Cc2c[nH]c3ccc(F)cc23)NC(=O)CNC1=O [Compound 154]	4.92 to 6.00
CC(=O)N[C@@H]1CC(=O)NCCOc2ccc(cc2)CC(C(N)=O)NC(=O)[C@]2(C)CCCN2C(=O)[C@H](Cc2ccc(O)cc2)NC(=O)[C@H](Cc2cnc[nH]2)NC(=O)[C@H](CC(=O)OCc2ccccc2)NC(=O)[C@H](Cc2c[nH]c3ccc(F)cc23)NC(=O)[C@H](Cc2c[nH]c3ccc(F)cc23)NC(=O)CNC1=O (some centres unmarked) [Compound 321] (Ac-[dD]G[Trp(5-F)][Trp(5-F)]D(OBn)HY[αMeP][ξAEF]-NH2; lactam 1-9)	6.00 to 7.00
CC(=O)N[C@H]1CCC(=O)NCCC[C@@H](C(N)=O)NC(=O)[C@@H]2CCCN2C(=O)[C@H](Cc2ccc(O)cc2)NC(=O)[C@H](Cc2c[nH]cn2)NC(=O)[C@H](CC(=O)O)NC(=O)[C@H](Cc2c[nH]c3ccc(F)cc23)NC(=O)[C@H](Cc2c[nH]c3ccc(F)cc23)NC(=O)CNC(=O)[C@H](CCCCN)NC1=O [Compound 179] (Ac-EKG[Trp(5-F)][Trp(5-F)]DHYP[Orn]-NH2; lactam 1-10)	4.92 to 6.00
NCCCC[C@@H]1NC(=O)CCSCc2cccc(c2)CSC[C@@H](C(N)=O)NC(=O)[C@@H]2CCCN2C(=O)[C@H](Cc2ccc(O)cc2)NC(=O)[C@H](Cc2c[nH]cn2)NC(=O)[C@H](CC(=O)O)NC(=O)[C@H](Cc2c[nH]c3ccc(F)cc23)NC(=O)[C@H](Cc2cccc3ccccc23)NC(=O)CNC1=O [Compound 209] ([Mpa]KG[1Nal][Trp(5-F)]DHYPC-NH2; linker 1-10 via mXylylene)	4.92 to 6.00
CC(=O)N[C@H]1CSCc2cccc(c2)CSC[C@@H](C(N)=O)NC(=O)[C@@H]2CCCN2C(=O)[C@H](Cc2ccc(O)cc2)NC(=O)[C@H](Cc2cnc[nH]2)NC(=O)[C@H](CC(=O)O)NC(=O)[C@H](Cc2c[nH]c3ccc(F)cc23)NC(=O)[C@H](Cc2c[nH]c3ccc(F)cc23)NC(=O)CNC(=O)[C@H](CCCCN)NC1=O [Compound 148] (Ac-CKG[Trp(5-F)][Trp(5-F)]DHYPC-NH2; linker 1-10 via mXylylene)	6.00 to 7.00
NCCCC[C@@H]1NC(=O)CCCCn2cc(nn2)CC[C@@H](C(N)=O)NC(=O)[C@@H]2CCCN2C(=O)[C@H](Cc2ccc(O)cc2)NC(=O)[C@H](Cc2c[nH]cn2)NC(=O)[C@H](CC(=O)O)NC(=O)[C@H](Cc2c[nH]c3ccc(F)cc23)NC(=O)[C@H](Cc2c[nH]c3ccc(F)cc23)NC(=O)CNC1=O [Compound 185]	7.00 to 10.00
C[C@H]1NC(=O)[C@H](CCCCN)NC(=O)CCSCc2cccc(c2)CSCCNC(=O)[C@]2(C)CCCN2C(=O)[C@H](Cc2c[nH]c3ncccc23)NC(=O)[C@H](Cc2cnc[nH]2)NC(=O)[C@H](CC(=O)O)NC(=O)[C@H](Cc2c[nH]c3ccc(F)cc23)NC(=O)[C@H](Cc2c[nH]c3ccc(F)cc23)NC1=O [Compound 247] (cyclo(DH[Trp(7-aza)][αMeP][X4]K[dA][Trp(5-F)][Trp(5-F)]))	6.00 to 7.00
Cc1ccc(C[C@@H]2NC(=O)[C@H](Cc3c[nH]cn3)NC(=O)[C@H](CC(=O)O)NC(=O)[C@H](Cc3c[nH]c4ccc(F)cc34)NC(=O)[C@H](Cc3c[nH]c4ccc(F)cc34)NC(=O)[C@@H](C)NC(=O)[C@H](CCCCN)NC(=O)CCSCc3cccc(c3)CSCCNC(=O)[C@]3(C)CCCN3C2=O)cc1 [Compound 299] (cyclo(DH[Phe(4-Me)][αMeP][X4]K[dA][Trp(5-F)][Trp(5-F)]))	6.00 to 7.00
COc1ccc(C[C@@H]2NC(=O)[C@@H]3CCCC/C=C/CO[C@H]4C[C@@H](C(=O)N3)N(C4)C(=O)[C@H](Cc3c[nH]c4ccc(F)cc34)NC(=O)[C@H](Cc3c[nH]c4ccc(F)cc34)NC(=O)[C@@H](C)NC(=O)[C@H](CCCCN)NC(=O)CCSCc3cccc(c3)CSC[C@@H](C(N)=O)NC(=O)[C@]3(C)CCCN3C2=O)cc1 [Compound 508]	6.00 to 7.00
NCCCC[C@@H]1NC(=O)CCSCc2cccc(c2)CSC[C@@H](C(N)=O)NC(=O)[C@@H]2CCN2C(=O)[C@H](Cc2ccc(O)cc2)NC(=O)[C@H](Cc2cnc[nH]2)NC(=O)[C@H](CC(=O)O)NC(=O)[C@H](Cc2c[nH]c3ccc(F)cc23)NC(=O)[C@H](Cc2c[nH]c3ccc(F)cc23)NC(=O)CNC1=O [Compound 207] ([Mpa]KG[Trp(5-F)][Trp(5-F)]DHY[Aze]C-NH2; linker 1-10 via mXylylene)	4.30 to 4.68
NCCCC[C@@H]1NC(=O)CCCCn2cc(nn2)CCC[C@@H](C(N)=O)NC(=O)[C@@H]2CCCN2C(=O)[C@H](Cc2ccc(O)cc2)NC(=O)[C@H](Cc2c[nH]cn2)NC(=O)[C@H](CC(=O)O)NC(=O)[C@H](Cc2c[nH]c3ccc(F)cc23)NC(=O)[C@H](Cc2c[nH]c3ccc(F)cc23)NC(=O)CNC1=O [Compound 153]	4.92 to 6.00
C[C@H]1NC(=O)[C@H](Cc2c[nH]c3ccc(F)cc23)NC(=O)[C@H](Cc2c[nH]c3ccc(F)cc23)NC(=O)CNC(=O)[C@H](CCCCN)NC(=O)CCSCc2cccc(c2)CSC[C@@H](C(N)=O)NC(=O)[C@]2(C)CCCN2C(=O)[C@H](Cc2ccc(O)cc2)NC(=O)[C@H](Cc2cnc[nH]2)NC1=O [Compound 032] ([Mpa]KG[Trp(5-F)][Trp(5-F)][dA]HY[αMeP]C-NH2; linker 1-10 via mXylylene)	6.00 to 7.00
CC(=O)N[C@H]1CSCc2cccc(c2)CSC[C@@H](C(N)=O)NC(=O)[C@@H]2CCCN2C(=O)[C@H](Cc2ccc(O)cc2)NC(=O)[C@H](Cc2cnc[nH]2)NC(=O)[C@H](CC(=O)O)NC(=O)[C@H](Cc2c[nH]c3ccccc23)NC(=O)[C@H](Cc2c[nH]c3ccc(F)cc23)NC(=O)CNC(=O)[C@H](CCCCN)NC1=O [Compound 177] (Ac-CKG[Trp(5-F)]WDHYPC-NH2; linker 1-10 via mXylylene)	4.30 to 4.68
NCCCC[C@@H]1NC(=O)CCSCc2cccc(c2)CSC[C@@H](C(N)=O)NC(=O)[C@@H]2CCCN2C(=O)[C@H](Cc2ccc(O)cc2)NC(=O)[C@H](Cc2c[nH]cn2)NC(=O)[C@H](CC(=O)O)NC(=O)[C@H](Cc2c[nH]c3ccc(F)cc23)NC(=O)[C@H](CCc2ccccc2)NC(=O)CNC1=O [Compound 211] ([Mpa]KG[hPhe][Trp(5-F)]DHYPC-NH2; linker 1-10 via mXylylene)	4.92 to 6.00
CCC[C@H](NC(C)=O)C(=O)N[C@@H](Cc1c[nH]cn1)C(=O)N(C)[C@@H](Cc1ccc(F)cc1)C(=O)N[C@H]1CSCc2cccc(c2)CSC[C@@H](C(N)=O)NC(=O)[C@@H]2CCCN2C(=O)[C@H](Cc2ccc(O)cc2)NC(=O)[C@H](Cc2c[nH]cn2)NC(=O)[C@H](CC(=O)O)NC(=O)[C@H](Cc2c[nH]c3ccc(F)cc23)NC(=O)[C@H](Cc2c[nH]c3ccc(F)cc23)NC(=O)CNC(=O)[C@H](CCCCN)NC1=O [Compound 143] (Ac-[Nva]H[NMePhe(4-F)]CKG[Trp(5-F)][Trp(5-F)]DHYPC-NH2; linker 4-13 via mXylylene)	4.30 to 4.68
C[C@@]1(CCCCN)NC(=O)CCSCc2cccc(c2)CSC[C@@H](C(N)=O)NC(=O)[C@@H]2CCCN2C(=O)[C@H](Cc2ccc(O)cc2)NC(=O)[C@H](Cc2c[nH]cn2)NC(=O)[C@H](CC(=O)O)NC(=O)[C@H](Cc2c[nH]c3ccc(F)cc23)NC(=O)[C@H](Cc2c[nH]c3ccc(F)cc23)NC(=O)CNC1=O [Compound 214] ([Mpa][αMeK]G[Trp(5-F)][Trp(5-F)]DHYPC-NH2; linker 1-10 via mXylylene)	4.92 to 6.00
NCCCC[C@@H]1NC(=O)CCSCc2cccc(c2)CSC[C@@H](C(N)=O)NC(=O)[C@@H]2C[C@@H](c3ccccc3)CN2C(=O)[C@H](Cc2ccc(O)cc2)NC(=O)[C@H](Cc2c[nH]cn2)NC(=O)[C@H](CC(=O)O)NC(=O)[C@H](Cc2c[nH]c3ccc(F)cc23)NC(=O)[C@H](Cc2c[nH]c3ccc(F)cc23)NC(=O)CNC1=O [Compound 293] ([Mpa]KG[Trp(5-F)][Trp(5-F)]DHY[Pro(trans-4-Ph)]C-NH2; linker 1-10 via mXylylene)	7.00 to 10.00
